Test [1] concerns incorrect dNTP-F1s opposite dA in the template. In words: Fidelity: misincorporation of the three incorrect dNTP-F1s opposite dA in the template. Type of test: biochemical. The conditions noted are these: even after 90 minutes. How it is done:
To examine the fidelity of Taq197, the misincorporation of the three incorrect dNTP-F1s opposite dA in the template was characterized. […] Thus, based on the detection limit of the assay, it was possible to set an upper limit of 5.6×10^−4 min^−1 for the rate of mispair formation, making correct incorporation of modified nucleotides more than 5,000-fold more efficient than mispair formation.

Test [2] relates to dNTP-F1 / scarred primer terminus. In words: Sequencing-like kinetic assay: extension of scarred primer terminus with dNTP-F1 by Taq or Taq197. Type of test: biochemical. As to conditions: 37° C., 40 nM enzyme, 10 nM DNA, 100 nM dNTP-F1. The method, then: Scarred primers were prepared enzymatically; following annealing of natural primers (bearing Rhodamine 110 dye-label, purchased from IDT) to templates, 15 U Klenow fragment (exo−) (New England Biolabs) in its supplied buffer was incubated with 5 μM DNA and 25 μM scarred dNTPs in 100 μL for 20 minutes at room temperature to incorporate scarred nucleotides onto the primer. Upon completion, reaction mixtures were heated at 70° C. for 15 minutes to inactivate Klenow fragment and purified from the scarred dNTPs using a DTR spin column (Edge BioSystems). Scarred primers were observed on an ABI3730 DNA sequencer and conversion to the desired scarred primer was greater than 95%.
Polymerases were added to a mixture containing scarred DNA (prepared in previous section), modified dNTPs, and reaction buffer and incubated at either 37° C. or 50° C. and aliquots removed at variable time points and added directly to a quenching solution containing 100 mM EDTA. Reaction products were characterized on an ABI3730 sequencer using the GeneScan™ LIZ 120® size standard (Applied Biosystems) as a reference. The ratio of peak heights, obtained using ABI Peak Scanner (v1.0), was used to calculate percent primer conversion as a function of time and the data was fit to a first order exponential (Prism 4 by GraphPad).
The mutations found in Sf168, Sf197, and Sf267 were cloned into full length Taq, and extension of a scarred primer terminus was characterized by measuring the rate of incorporation of each dNTP-F1 by Taq or a selected mutant. Taq197 (corresponding to the mutations from Sf197) was the most optimized of the three polymerase mutants, incorporating each dNTP-F1 48- to 377-fold more efficiently than wild type Taq, with no apparent bias toward the identity of the dNTP-F1 or the sequence of the primer, as shown in Table 7 below. Buffer conditions were as follows: 20 mM Tris pH 8.8, 10 mM NaCl, 10 mM KCl, 10 mM ammonium sulfate, 0.1% Triton X-100, 10 mM MgCl2, 37° C., 40 nM enzyme, 10 nM DNA, 100 nM dNTP-F1. N1 nucleotides are scarred (see FIG. 1 panel B).

Here are results for one substance from US20100203524A1, “POLYMERASES AND METHODS OF USE THEREOF” (Helicos Biosciences Corporation, priority 2008, published 2010).

Turning to “Taq: wild type full length T. aquaticus DNA polymerase I (Taq)”, the synthesis of mispairs entry in test [1] is “does not measurably synthesize any of the mispairs”. Moreover, the “rate of incorporation of dNTP-F1” value in test [2] (dNTP-F1 C, N1N1N1/N2N2N2 AAA/UUU) amounted to 0.002 ± 0.0002 min⁻¹; in test [2] (dNTP-F1 G, N1N1N1/N2N2N2 UIJU/AAA) it was 0.14 ± 0.05 min⁻¹; in test [2] (dNTP-F1 N = A, N1N1N1/N2N2N2 UUU/AAA), 0.011 ± 0.002 min⁻¹; in test [2] (dNTP-F1 U, N1N1N1/N2N2N2 CCC/GGG), 0.05 ± 0.02 min⁻¹.
